Common to all, as to assay type: functional
Test [1] concerns Candida tropicalis. Put plainly: Antifungal activity against Candida tropicalis MTCC 183 after 48 hrs by broth dilution method. The settings on record: MTCC 183, 48 h. For orientation: Dilution methods test growth across graded concentrations, often in twofold steps.
Test [2] relates to Rattus norvegicus. Put plainly: Antiinflammatory activity in rat assessed as inhibition of carrageenan-induced paw edema administered 30 mins prior to carrageenan challenge measured after 1 hr relative to control.
In test [3] the test system is Staphylococcus aureus. Kind of test: Antimicrobial activity against Staphylococcus aureus MTCC 3160 assessed as zone of inhibition at 5 mg/ml after 24 hrs by agar well diffusion method. The settings on record: MTCC 3160, 24 h, read-out: IZ.
Test [4] has as its system Candida albicans. Kind of test: Antifungal activity against Candida albicans MTCC 461 assessed as zone of inhibition at 5 mg/ml after 24 hrs by agar well diffusion method. The settings on record: MTCC 461, 24 h, read-out: IZ. For orientation: In agar diffusion tests the substance spreads into inoculated agar from a disc or well.
For test [5], the system named is Rattus norvegicus. Kind of test: Antiinflammatory activity in rat assessed as inhibition of carrageenan-induced paw edema administered 30 mins prior to carrageenan challenge measured after 3 hrs relative to control. (In general: In the carrageenan paw model, swelling and tenderness develop within hours.)
In test [6] the test system is Klebsiella pneumoniae. Kind of test: Antimicrobial activity against Klebsiella pneumoniae MTCC 3384 after 24 hrs by broth dilution method. Conditions: MTCC 3384, 24 h.
For test [7], the system named is Staphylococcus aureus. Put plainly: Antimicrobial activity against Staphylococcus aureus MTCC 3160 after 24 hrs by broth dilution method. The settings on record: MTCC 3160, 24 h.
Test [8] relates to Bacillus subtilis. Kind of test: Antimicrobial activity against Bacillus subtilis MTCC 441 after 24 hrs by broth dilution method. Conditions: MTCC 441, 24 h.
The test system of test [9] is Escherichia coli. Put plainly: Antimicrobial activity against Escherichia coli MTCC 4351 after 24 hrs by broth dilution method. Conditions: MTCC 4351, 24 h.
Test [10] has as its system Candida albicans. Put plainly: Antifungal activity against Candida albicans MTCC 461 after 48 hrs by broth dilution method. The settings on record: MTCC 461, 48 h.
Test [11] deals with Aspergillus niger. Put plainly: Antifungal activity against Aspergillus niger MTCC 282 after 48 hrs by broth dilution method. Conditions: MTCC 282, 48 h.
Test [12] concerns Escherichia coli. Kind of test: Antimicrobial activity against Escherichia coli MTCC 4351 assessed as zone of inhibition at 5 mg/ml after 24 hrs by agar well diffusion method. Conditions: MTCC 4351, 24 h, read-out: IZ.
Test [13] relates to Rattus norvegicus. Kind of test: Antiinflammatory activity in rat assessed as inhibition of carrageenan-induced paw edema administered 30 mins prior to carrageenan challenge measured after 2 hrs relative to control.
Test [14] concerns Bacillus subtilis. Kind of test: Antimicrobial activity against Bacillus subtilis MTCC 441 assessed as zone of inhibition at 5 mg/ml after 24 hrs by agar well diffusion method. The settings on record: MTCC 441, 24 h, read-out: IZ.
Test [15] concerns Candida tropicalis. Kind of test: Antifungal activity against Candida tropicalis MTCC 183 assessed as zone of inhibition at 5 mg/ml after 24 hrs by agar well diffusion method. Conditions: MTCC 183, 24 h, read-out: IZ.
Test [16] deals with Penicillium chrysogenum. Put plainly: Antifungal activity against Penicillium notatum after 48 hrs by broth dilution method.
The test system of test [17] is Klebsiella pneumoniae. Put plainly: Antimicrobial activity against Klebsiella pneumoniae MTCC 3384 assessed as zone of inhibition at 5 mg/ml after 24 hrs by agar well diffusion method. Conditions: MTCC 3384, 24 h, read-out: IZ.
Test [18] concerns Aspergillus niger. Put plainly: Antifungal activity against Aspergillus niger MTCC 282 assessed as zone of inhibition at 5 mg/ml after 24 hrs by agar well diffusion method. The settings on record: MTCC 282, 24 h, read-out: IZ.
The subject of test [19] is Penicillium chrysogenum. Put plainly: Antifungal activity against Penicillium notatum assessed as zone of inhibition at 5 mg/ml after 24 hrs by agar well diffusion method. Conditions: read-out: IZ.

SMILES strings stand for the structures. ≈ marks a conversion by molar mass, not a printed value.

One may read the MIC as the least concentration at which growth counts as inhibited. Low readings indicate a more susceptible organism, high ones a less susceptible organism. On to `CCCn1c(-c2ccc(Cl)cc2Cl)nc2cc(C(=O)N/N=C/c3ccccc3[N+](=O)[O-])ccc21`, for which the MIC was determined as 25 µg/mL (≈ 50.4 µM) in test [1]; 25 µg/mL (≈ 50.4 µM) in test [6]; 25 µg/mL (≈ 50.4 µM) in test [7]; 25 µg/mL (≈ 50.4 µM) in [8]; 12.5 µg/mL (≈ 25.2 µM) in test [9]; 50 µg/mL (≈ 101 µM) in [10]. For the same compound, the MIC in [11] came out at 12.5 µg/mL (≈ 25.2 µM); in test [16], 50 µg/mL (≈ 101 µM). The “inhibition (INH)” value was determined as 46.66% in test [2], 47.44% in test [5] and 51.74% in test [13]. Besides, the zone of inhibition at 5000 µg/mL in test [3] is 15 mm; in [4], 14 mm; in test [12], 17 mm; in [14], 16 mm; in test [15], 16 mm; in test [17] it was 17 mm. For the same compound, the results for the zone of inhibition at 5000 µg/mL in [18] and in test [19] were 18 mm and 12 mm, respectively.

`CCCn1c(-c2ccc(Cl)cc2Cl)nc2cc(C(=O)N/N=C/c3ccc(Br)cc3)ccc21`: the MIC in [1] came out at 12.5 µg/mL (≈ 23.6 µM); in test [6], 25 µg/mL (≈ 47.1 µM); in test [7], 12.5 µg/mL (≈ 23.6 µM); in test [8], 6.25 µg/mL (≈ 11.8 µM); in [9], 3.12 µg/mL (≈ 5.88 µM); in test [10], 25 µg/mL (≈ 47.1 µM). In addition, the MIC in test [11] came out at 6.25 µg/mL (≈ 11.8 µM); in test [16], 50 µg/mL (≈ 94.3 µM). Moreover, the “inhibition (INH)” value in [2] was 65.55%; in test [5], 69.05%; in test [13], 69.51%. In addition, the zone of inhibition at 5000 µg/mL in test [3] came to 17 mm; in test [4], 15 mm; in test [12], 22 mm; in [14] it was 19 mm; in test [15], 16 mm; in test [17], 17 mm. Besides, the figures for the zone of inhibition at 5000 µg/mL in [18] and in test [19] were 20 mm and 14 mm, respectively.

For the compound `CCCn1c(-c2ccc(Cl)cc2Cl)nc2cc(C(=O)N/N=C/c3ccc([N+](=O)[O-])cc3)ccc21`, the MIC was determined as 12.5 µg/mL (≈ 25.2 µM) in test [1]; 25 µg/mL (≈ 50.4 µM) in test [6]; 12.5 µg/mL (≈ 25.2 µM) in test [7]; 25 µg/mL (≈ 50.4 µM) in test [8]; 12.5 µg/mL (≈ 25.2 µM) in test [9]; 50 µg/mL (≈ 101 µM) in test [10]. Besides, the MIC in test [11] is 6.25 µg/mL (≈ 12.6 µM); in test [16], 25 µg/mL (≈ 50.4 µM). The “inhibition (INH)” value in test [2] was 50%; in test [5], 46.27%; in test [13], 50.2%. Besides, the zone of inhibition at 5000 µg/mL was determined as 17 mm in test [3]; 13 mm in test [4]; 18 mm in test [12]; 16 mm in test [14]; 16 mm in [15]; 17 mm in test [17]. For the same compound, the zone of inhibition at 5000 µg/mL in test [18] is 20 mm; in test [19], 13 mm.

On to `CCCn1c(-c2ccc(Cl)cc2Cl)nc2cc(C(=O)N/N=C/c3cccc(Cl)c3)ccc21`, for which the MIC in test [1] stood at 25 µg/mL (≈ 51.5 µM); in test [6] it was 50 µg/mL (≈ 103 µM); in test [7], 25 µg/mL (≈ 51.5 µM); in test [8] it was 25 µg/mL (≈ 51.5 µM); in test [9] it was 6.25 µg/mL (≈ 12.9 µM); in test [10], 100 µg/mL (≈ 206 µM). The values for the MIC in test [11] and in [16] were 12.5 µg/mL (≈ 25.7 µM) and 25 µg/mL (≈ 51.5 µM), respectively. The “inhibition (INH)” value in test [2] is given as 49.25%; in test [5], 43.35%; in test [13], 45.73%. The zone of inhibition at 5000 µg/mL in test [3] came to 15 mm; in [4], 10 mm; in test [12], 21 mm; in test [14], 15 mm; in [15], 16 mm; in test [17] it was 14 mm. The zone of inhibition at 5000 µg/mL in [18] stood at 18 mm; in test [19], 14 mm.

Regarding `CCCn1c(-c2ccc(Cl)cc2Cl)nc2cc(C(=O)N/N=C/c3ccccc3)ccc21`, the MIC was determined as 50 µg/mL (≈ 111 µM) in test [1]; 50 µg/mL (≈ 111 µM) in test [6]; 50 µg/mL (≈ 111 µM) in [7]; 25 µg/mL (≈ 55.4 µM) in [8]; 12.5 µg/mL (≈ 27.7 µM) in test [9]; 50 µg/mL (≈ 111 µM) in test [10]. Also, the MIC in [11] and in [16] was 25 µg/mL (≈ 55.4 µM) each time. The figures for the “inhibition (INH)” value in test [2], in test [5] and in test [13] were 56.85%, 47.15% and 54.12%, respectively. The zone of inhibition at 5000 µg/mL in [3] stood at 12 mm; in [4], 12 mm; in test [12], 18 mm; in test [14], 15 mm; in [15], 12 mm; in test [17] it was 12 mm. Moreover, the zone of inhibition at 5000 µg/mL in test [18] is 19 mm; in [19] it was 16 mm.

As to `CCCn1c(-c2ccc(Cl)cc2Cl)nc2cc(C(=O)N/N=C/c3ccccc3F)ccc21`, the MIC in test [1] was 6.25 µg/mL (≈ 13.3 µM); in test [6], 12.5 µg/mL (≈ 26.6 µM); in test [7], 12.5 µg/mL (≈ 26.6 µM); in [8], 6.25 µg/mL (≈ 13.3 µM); in test [9], 6.25 µg/mL (≈ 13.3 µM); in [10], 6.25 µg/mL (≈ 13.3 µM). Moreover, the MIC in test [11] came out at 3.12 µg/mL (≈ 6.65 µM); in [16], 12.5 µg/mL (≈ 26.6 µM). The “inhibition (INH)” value came to 60.55% in [2], 68.9% in test [5] and 67.78% in test [13]. Further, the zone of inhibition at 5000 µg/mL in test [3] is 17 mm; in test [4], 19 mm; in [12], 20 mm; in [14], 19 mm; in test [15] it was 18 mm; in test [17] it was 18 mm. Also, the values for the zone of inhibition at 5000 µg/mL in test [18] and in test [19] were 22 mm and 16 mm, respectively.

Turning to `CCCn1c(-c2ccc(Cl)cc2Cl)nc2cc(C(=O)N/N=C/c3ccc(N(C)C)cc3)ccc21`, the MIC in test [1] came out at 25 µg/mL (≈ 50.6 µM); in [6], 25 µg/mL (≈ 50.6 µM); in test [7], 12.5 µg/mL (≈ 25.3 µM); in test [8], 6.25 µg/mL (≈ 12.6 µM); in [9], 25 µg/mL (≈ 50.6 µM); in test [10], 12.5 µg/mL (≈ 25.3 µM). Moreover, the values for the MIC in test [11] and in test [16] were 25 µg/mL (≈ 50.6 µM) and 50 µg/mL (≈ 101 µM), respectively. Also, the “inhibition (INH)” value amounted to 55% in [2], 50.94% in test [5] and 53.84% in test [13]. For the same compound, the zone of inhibition at 5000 µg/mL in test [3] worked out at 17 mm; in [4], 16 mm; in test [12] it was 15 mm; in test [14] it was 19 mm; in test [15], 16 mm; in [17], 16 mm. In addition, the results for the zone of inhibition at 5000 µg/mL in test [18] and in test [19] were 16 mm and 13 mm, respectively.

For the compound `CCCn1c(-c2ccc(Cl)cc2Cl)nc2cc(C(=O)N/N=C/c3ccc(F)cc3)ccc21`, the MIC in test [1], in test [6], in test [7], in test [8], in test [9] and in [10] was 6.25 µg/mL (≈ 13.3 µM) in each case. The MIC in [11] turned out to be 6.25 µg/mL (≈ 13.3 µM); in test [16], 25 µg/mL (≈ 53.3 µM). In addition, the “inhibition (INH)” value came to 61.48% in test [2], 50.36% in test [5] and 53.14% in test [13]. For the same compound, the zone of inhibition at 5000 µg/mL in test [3] was found to be 20 mm; in test [4] it was 18 mm; in test [12], 20 mm; in test [14], 19 mm; in test [15], 18 mm; in [17] it was 19 mm. The zone of inhibition at 5000 µg/mL worked out at 20 mm in test [18] and 15 mm in test [19].

The values above are taken from ChEMBL document CHEMBL3399986, “Rapid 'one-pot' synthesis of a novel benzimidazole-5-carboxylate and its hydrazone derivatives as potential anti-inflammatory and antimicrobial agents” (Bioorg Med Chem Lett, 2015).
